Experiment in all cases: In Vitro Anti-Bacterial Activity Test (MIC, agar dilution)
Holding throughout (assay type): cell-based
(In general: In agar dilution the substance is mixed into plates at graded concentrations.)

Assay [1] has as its system Enterobacter cloacae 1321E. The following applies: Enterobacter cloacae 1321E; Muller-Hinton agar, 37° C., 18 hours; read-out: MIC. The method, then: (§1) The above in vitro antibacterial activity test was carried out in accordance with the agar culture medium dilution method (Hoechst 345) by using Muller-Hinton agar medium to determine the minimum inhibitory concentration (MIC).
(§2) The strains having 10^7 C.F.U./ml were inoculated on the culture medium, and the growth of the strains was observed after incubating them at 37° C. for 18 hours, in which ciprofloxacin was used as a control antibacterial agent. In this test, twenty typical strains were used.

Assay [2] relates to Enterobacter cloacae P99. The settings on record: Enterobacter cloacae, P99, 18 h. The method, then: as §1, §2
Assay [3] relates to Escherichia coli 078. As for the experimental part: as §1, §2
In assay [4] the test system is Escherichia coli 1507E. The following applies: Muller-Hinton agar, 37° C. The method, then:
as §1, §2

The subject of assay [5] is Escherichia coli DC0. The following applies: Muller-Hinton agar, 37° C., 18 hours, read-out: MIC. As for the experimental part:
as §1, §2

For assay [6], the system named is Escherichia coli DC2. The following applies: Escherichia coli, DC2, 18 h. As for the experimental part: as §1, §2
Assay [7] concerns Escherichia coli TEM. The following applies: Muller-Hinton agar, 37° C. As for the experimental part: as §1, §2
In assay [8] the test system is Klebsiella aerogenes 1522E. The settings on record: Klebsiella aerogenes 1522E, Muller-Hinton agar, 37° C., 18 hours. The method, then: as §1, §2
In assay [9] the test system is Klebsiella oxytoca 1082E. The following applies: Klebsiella oxytoca 1082E; Muller-Hinton agar, 37° C., 18 hours; read-out: MIC. The method, then:
as §1, §2

Assay [10] relates to Pseudomonas aeruginosa 1592E. The settings on record: Muller-Hinton agar, 37° C., 18 hours, read-out: MIC. The method, then:
as §1, §2

Assay [11] has as its system Pseudomonas aeruginosa 1771M. The following applies: Muller-Hinton agar, 37° C. As for the experimental part: as §1, §2
The subject of assay [12] is Pseudomonas aeruginosa 1771. The settings on record: Pseudomonas aeruginosa 1771; Muller-Hinton agar, 37° C., 18 hours; read-out: MIC. The method, then: as §1, §2
Assay [13] deals with Pseudomonas aeruginosa 9027. The settings on record: Muller-Hinton agar, 37° C., 18 hours, read-out: MIC. The method, then:
as §1, §2

In assay [14] the test system is Salmonella typhimurium. The settings on record: Salmonella enterica; Salmonella typhimurium; Muller-Hinton agar, 37° C., 18 hours; read-out: MIC. The method, then:
as §1, §2

Assay [15] concerns Staphylococcus aureus 285. The settings on record: Staphylococcus aureus 285, Muller-Hinton agar, 37° C., 18 hours. The method, then: as §1, §2
The subject of assay [16] is Staphylococcus aureus 503. The following applies: Staphylococcus aureus 503; Muller-Hinton agar, 37° C., 18 hours; read-out: MIC. As for the experimental part: as §1, §2
The test system of assay [17] is Staphylococcus aureus SG511. The following applies: Staphylococcus aureus SG511; Muller-Hinton agar, 37° C., 18 hours; read-out: MIC. The method, then:
as §1, §2

Assay [18] relates to Streptococcus faecium MD8b. The settings on record: Enterococcus faecium, Muller-Hinton agar, 37° C., 18 hours, read-out: MIC. The method, then:
as §1, §2

Assay [19] has as its system Streptococcus pyogenes 308A. The following applies: Muller-Hinton agar, 37° C., 18 hours, read-out: MIC. As for the experimental part:
as §1, §2

Assay [20] concerns Streptococcus pyogenes 77A. The method, then:
as §1, §2

[21] abbreviates: Klebsiella aerogenes, 1522E, 18 h, read-out: MIC.
Where [22] appears, read: Pseudomonas aeruginosa, 1771M, 18 h.
Setting [23] is: Staphylococcus aureus, 285, 18 h, read-out: MIC.
Where [24] appears, read: Streptococcus pyogenes 77A, Muller-Hinton agar, 37° C., 18 hours, read-out: MIC.
Where [25] appears, read: Streptococcus pyogenes, 77A, 18 h.

Counter-ions that a name gives are not always drawn. Like-named read-outs stand apart in the source and are kept apart here.

In general, MIC refers to the lowest concentration that inhibits growth of the organism.

As for `CS(=O)(=O)CC(=O)c1cn(C2CC2)c2c(Cl)c(N3CCC(N)C3)c(F)cc2c1=O` (stereo not shown) [Example 33, 1-cyclopropyl-6-fluoro-8-chloro-7-(3-aminopyrrolidin-1-yl)-3-(2-methanesulfonylacetyl)-1,4-dihydro-4-oxoquinoline hydrochloride], the MIC came to 0.098 µg/mL in assay [1]; 0.195 µg/mL in [2]; 0.195 µg/mL in assay [3] (Escherichia coli, 078, 18 h); 0.195 µg/mL in assay [4] (Escherichia coli, 1507E, 18 h); 0.195 µg/mL in assay [5]; 0.098 µg/mL in [6]. Besides, the MIC is 0.098 µg/mL in assay [7] (Escherichia coli, 18 h); 0.391 µg/mL in [8] (setting [21]); 0.391 µg/mL in assay [9]; 1.56 µg/mL in assay [10]; 0.781 µg/mL in [11] (setting [22]); 1.56 µg/mL in assay [12]. Besides, the MIC in assay [13] is 1.56 µg/mL; in assay [14], 0.781 µg/mL; in assay [15] (setting [23]) it was 1.56 µg/mL; in assay [16], 0.781 µg/mL; in assay [17], 1.56 µg/mL; in assay [18], 6.25 µg/mL. For the same compound, the minimum inhibitory concentration (MIC) in assay [19] and in [20] (setting [24]) was 3.12 µg/mL each time.
Consider `CC(=O)C(C(C)=O)C(=O)c1cn(C2CC2)c2c(Cl)c(N3CCC(N)C3)c(F)cc2c1=O` (stereo not shown) [Example 48, 1-cyclopropyl-6-fluoro-8-chloro-7-(3-aminopyrrolidin-1-yl)-3-(2,2-diacetoacetyl)-1,4-dihydro-4-oxoquinoline hydrochloride], for which the MIC in [1] turned out to be 0.098 µg/mL; in assay [2] it was 0.098 µg/mL; in assay [3] (Escherichia coli, 078, 18 h), 0.049 µg/mL; in [4] (Escherichia coli, 1507E, 18 h), 0.195 µg/mL; in assay [5], 0.391 µg/mL; in assay [6] it was 0.098 µg/mL. Moreover, the MIC was determined as 0.049 µg/mL in [7] (Escherichia coli, 18 h); 0.195 µg/mL in [8] (setting [21]); 0.195 µg/mL in [9]; 1.56 µg/mL in assay [10]; 0.781 µg/mL in assay [11] (setting [22]); 3.12 µg/mL in assay [12]. Further, the MIC in assay [13] was found to be 3.12 µg/mL; in assay [14], 0.391 µg/mL; in [15] (setting [23]), 0.195 µg/mL; in assay [16], 0.195 µg/mL; in [17], 0.195 µg/mL; in assay [18], 0.195 µg/mL. Also, the MIC in [19] was 0.781 µg/mL; in [20] (setting [24]), 0.391 µg/mL.
`NCC1CCN(c2c(F)cc3c(=O)c(C(=O)C[N+](=O)[O-])cn(C4CC4)c3c2Cl)C1` (stereo not shown) [Example 53, 1-cyclopropyl-6-fluoro-8-chloro-7-(3-aminomethylpyrrolidin-1-yl)-3-(2-nitroacetyl)-1,4-dihydro-4-oxoquinoline hydrochloride]: the MIC in [1] is less than 0.002 µg/mL; in [2] it was 0.013 µg/mL; in assay [3] (Escherichia coli 078, Muller-Hinton agar, 37° C., 18 hours, read-out: MIC) it was less than 0.002 µg/mL; in assay [4] (Escherichia coli, 1507E, 18 h), 0.025 µg/mL; in assay [5], 0.195 µg/mL; in [6], 0.049 µg/mL. Besides, the MIC in assay [7] (Escherichia coli, 18 h) was 0.013 µg/mL; in assay [8] (setting [21]), 0.013 µg/mL; in [9], less than 0.002 µg/mL; in [10], 0.391 µg/mL; in [11] (setting [22]), 0.195 µg/mL; in assay [12] it was 0.781 µg/mL. Moreover, the MIC was 0.781 µg/mL in assay [13]; 0.013 µg/mL in assay [14]; 0.007 µg/mL in assay [15] (setting [23]); 0.013 µg/mL in assay [16]; 0.013 µg/mL in assay [17]; 0.049 µg/mL in [18]. Also, the figures for the MIC in assay [19] and in [20] (setting [24]) were 0.098 µg/mL and 0.049 µg/mL, respectively.
As to `COc1c(N2CCC(N)C2)c(F)cc2c(=O)c(C(=O)C[N+](=O)[O-])cn(C3CC3)c12` (stereo not shown) [Example 49, 1-cyclopropyl-6-fluoro-8-methoxy-7-(3-aminopyrrolidin-1-yl)-3-(2-nitroacetyl)-1,4-dihydro-4-oxoquinoline hydrochloride], the MIC is 0.025 µg/mL in assay [1]; 0.049 µg/mL in assay [2]; 0.049 µg/mL in assay [3] (Escherichia coli, 078, 18 h); 0.098 µg/mL in assay [4] (Escherichia coli, 1507E, 18 h); 0.391 µg/mL in assay [5]; 0.098 µg/mL in assay [6]. In addition, the MIC is 0.049 µg/mL in [7] (Escherichia coli, 18 h); 0.098 µg/mL in assay [8] (setting [21]); 0.013 µg/mL in assay [9]; 1.56 µg/mL in assay [10]; 0.781 µg/mL in [11] (setting [22]); 3.12 µg/mL in assay [12]. For the same compound, the MIC in assay [13] was 3.12 µg/mL; in [14] it was 0.049 µg/mL; in assay [15] (setting [23]), 0.098 µg/mL; in assay [16], 0.098 µg/mL; in assay [17] it was 0.098 µg/mL; in [18] it was 0.195 µg/mL. For the same compound, the MIC in assay [19] amounted to 0.391 µg/mL; in [20] (setting [24]) it was 0.098 µg/mL.
Consider `CC1CN(c2c(F)cc3c(=O)c(C(=O)C[N+](=O)[O-])cn(C4CC4)c3c2F)CCN1` (stereo not shown) [Example 7, 1-cyclopropyl-6,8-difluoro-7-(3-methylpiperazin-1-yl)-3-(2-nitroacetyl)-1,4-dihydro-4-oxoquinoline hydrochloride], for which the MIC is 0.013 µg/mL in assay [1]; 0.391 µg/mL in assay [2]; 0.049 µg/mL in [3] (Escherichia coli, 078, 18 h); 0.025 µg/mL in [4] (Escherichia coli, 1507E, 18 h); 0.391 µg/mL in assay [5]; 0.391 µg/mL in assay [6]. Besides, the MIC in assay [7] (Escherichia coli, 18 h) was 0.195 µg/mL; in assay [8] (setting [21]) it was 0.391 µg/mL; in assay [9], less than 0.002 µg/mL; in assay [10], 0.781 µg/mL; in assay [11] (setting [22]), 0.391 µg/mL; in assay [12] it was 1.56 µg/mL. The MIC in [13] amounted to 0.781 µg/mL; in [14], 0.098 µg/mL; in assay [15] (setting [23]), 0.391 µg/mL; in assay [16] it was 0.391 µg/mL; in assay [17] it was 0.391 µg/mL; in assay [18] it was 0.781 µg/mL. The MIC in assay [19] amounted to 1.56 µg/mL; in assay [20] (setting [25]), 0.781 µg/mL.
Turning to `O=C(C[N+](=O)[O-])c1cn(C2CC2)c2cc(N3CCNCC3)c(F)cc2c1=O` [Example 5, 1-cyclopropyl-6-fluoro-7-(piperazin-1-yl)-3-(2-nitroacetyl)-1,4-dihydro-4-oxoquinoline trifluoroacetate], the MIC stood at 0.013 µg/mL in assay [4] (18 hours, read-out: MIC); 0.007 µg/mL in assay [7] (18 hours, trifluoroacetate); 0.025 µg/mL in [8] (trifluoroacetate); 0.049 µg/mL in [11] (18 hours, trifluoroacetate); 0.195 µg/mL in [15] (trifluoroacetate).
`CCOC(=O)C(C(=O)OCC)C(=O)c1cn(C2CC2)c2c(OC)c(N3CC[C@H](NC)C3)c(F)cc2c1=O` [Example 59, 1-cyclopropyl-6-fluoro-8-methoxy-7-(3-3S-methylaminopyrrolidin-1-yl)-3-(2,2-diethoxycarbonylacetyl)-1,4-dihydro-4-oxoquinoline hydrochloride]: the MIC was found to be 0.049 µg/mL in [1]; 0.049 µg/mL in assay [2]; 0.049 µg/mL in [3] (Escherichia coli, 078, 18 h); 0.391 µg/mL in assay [4] (Escherichia coli, 1507E, 18 h); 0.781 µg/mL in assay [5]; 0.098 µg/mL in [6]. For the same compound, the MIC in assay [7] (Escherichia coli, 18 h) stood at 0.049 µg/mL; in [8] (setting [21]) it was 0.098 µg/mL; in assay [9] it was 0.007 µg/mL; in [11] (setting [22]), 0.781 µg/mL; in assay [12], 1.56 µg/mL; in assay [13], 1.56 µg/mL. Further, the MIC in assay [14] turned out to be 0.049 µg/mL; in [15] (setting [23]) it was 0.098 µg/mL; in assay [16], 0.098 µg/mL; in [17], 0.098 µg/mL; in [18] it was 0.781 µg/mL; in assay [19] it was 0.781 µg/mL. The same compound registered an MIC in [20] (setting [25]) of 0.781 µg/mL.

The record behind these values is patent US5409933A, “Quinoline derivatives and processes for preparing the same” (priority 1993, dated 1995).
